Here are results for 70 compounds from ChEMBL document CHEMBL3507680, “University of Dundee, Gates Library screen for HepG2 cell viability”.

The nature of the series: Human HepG2 cell viability assay in 384 well format. Format: toxicity, cell-based. The note with it: HepG2 cells, read-out: Inhibition. Also on record: dose 125 nL, time 70.5 hour; concentration not given beside the values.
On to `CSc1ccc(C(=O)C2CCCN(C(=O)CCn3cncn3)C2)cc1` (stereo not given), for which the cytotoxicity at 70.5 h is -16.6%.

Regarding `C[C@@H]1CN(C(=O)C2CCS(=O)(=O)CC2)CC[C@@]1(O)C1CCOCC1`, the cytotoxicity at 70.5 h was -11%.

Take `CCOc1ccc(-c2ccnc(C3CC3)n2)cc1C(=O)O`: the cytotoxicity at 70.5 h is -3.39%.

`Cc1noc(CC2CCN(Cc3ccc(CCC(C)(C)O)cc3)CC2)n1`: the cytotoxicity at 70.5 h was -10.5%.

Take `COc1cccc2c1OCCCN(c1nc3c(c(=O)[nH]1)CCNCC3)C2`: the cytotoxicity at 70.5 h was -3.8%.

On to `O=C1CC(NS(=O)(=O)N2CCOCC2)CN1Cc1ccc(F)cc1` (stereo not given), for which the cytotoxicity at 70.5 h is -2.75%.

For the compound `CCOCCn1nc(C2CCNCC2)n(Cc2ccccc2)c1=O`, the cytotoxicity at 70.5 h was 3.02%.

Regarding `CCCc1cncnc1N1CCC(NCc2ccncc2)CC1`, the cytotoxicity at 70.5 h was -13.1%.

As for `CC(C)c1ccc(CN2CCCC3(CC2)CN(C)C(=O)O3)cc1` (stereo not given), the cytotoxicity at 70.5 h is -1.93%.

Regarding `CCc1nnc(N2CCN(c3ccccc3)C(=O)C2)o1`, the cytotoxicity at 70.5 h was -7.77%.

`CNc1nc(C(=O)NCc2cccnc2N(C)C2CCCCC2)cs1`: the cytotoxicity at 70.5 h was determined as 12.4%.

Consider `Cc1ccc(C(=O)N2CCC3(CC2)C(=O)NCCN3C)cc1O`, for which the cytotoxicity at 70.5 h was -6.34%.

For `COc1c(F)cc(CN2CCC3(CC2)C(C(=O)O)CC(=O)N3C)cc1Cl` (stereo not given), the cytotoxicity at 70.5 h was -3.91%.

Consider `Cc1nc(C2CCCNC2)cc(N2CCc3nc(N)sc3C2)n1` (stereo not given), for which the cytotoxicity at 70.5 h amounted to 17.4%.

Consider `CC(C)N1CCC(CC(=O)N2CCC(C(O)c3nccn3C)CC2)CC1` (stereo not given), for which the cytotoxicity at 70.5 h was -3.4%.

Consider `Cc1ccnc(NCc2cn3c(C)csc3n2)n1`, for which the cytotoxicity at 70.5 h was -11.5%.

As for `Cc1nccn1CCC(=O)N1CCC2(CCC(=O)N(CC3CC3)C2)CC1`, the cytotoxicity at 70.5 h came to 2.21%.

As to `CNC(=O)C1(N(C)CCc2ccccc2)Cc2ccccc2C1`, the cytotoxicity at 70.5 h was -1.19%.

In the case of `CCCN1CCN(Cc2cccc(OC)c2)[C@H]2CS(=O)(=O)C[C@H]21`, the cytotoxicity at 70.5 h came out at 25.9%.

Regarding `NCC1Cc2cccc(-c3nccc(N4CCC(O)CC4)n3)c2O1` (stereo not given), the cytotoxicity at 70.5 h came out at 7.11%.

As for `Cc1nn2c(N3CCS(=O)(=O)CC3)cc(-c3ccccc3)nc2c1C`, the cytotoxicity at 70.5 h is 1.53%.

On to `CC1CCN(CC(=O)N(Cc2ccccc2)Cc2nccs2)C1=O` (stereo not given), for which the cytotoxicity at 70.5 h is -11.6%.

Regarding `Cc1ccc(C(=O)N2CCCC3(C2)C(=O)N(C)c2ccccc23)c(=O)[nH]1` (stereo not given), the cytotoxicity at 70.5 h was -10.2%.

`CC(C)=CCN1C[C@H]2CC[C@@H]1CN(C(=O)c1ccc3c(c1)OCO3)C2`: the cytotoxicity at 70.5 h was 1.98%.

For `CCC(CO)N(Cc1ccco1)C(=O)c1cccc(C)c1O` (stereo not given), the cytotoxicity at 70.5 h was -0.632%.

Turning to `COc1ccc(-c2ccncc2)cc1CNC1CCCC1`, the cytotoxicity at 70.5 h was -4.27%.

For `Cc1nc2c(c(N3CCC(CCn4cccn4)CC3)n1)CCNCC2`, the cytotoxicity at 70.5 h is -2.46%.

Turning to `COc1nccnc1N1CCC2(CCCN(C(C)C)C2=O)C1` (stereo not given), the cytotoxicity at 70.5 h was -4.89%.

`CCN(Cc1noc(C)n1)C(=O)CCc1scnc1C`: the cytotoxicity at 70.5 h turned out to be 3.89%.

For `Cc1ccc2oc(=O)n(CCC(=O)N3CCN(C)C(=O)C3)c2c1`, the cytotoxicity at 70.5 h is -3.44%.

As for `O=C(NCCc1cccnc1)c1ccc2nccn2c1`, the cytotoxicity at 70.5 h was -16.8%.

As for `Cn1ccnc1CN1CCCC(CCc2ccc(F)c(F)c2)C1` (stereo not given), the cytotoxicity at 70.5 h is -1.61%.

For `CCc1ncc2c(n1)CN(C(=O)Cc1cc(OC)cc(OC)c1)C2`, the cytotoxicity at 70.5 h was -14%.

In the case of `Cc1nc2c(c(N[C@H](C(N)=O)C(C)C)n1)Cc1ccccc1OC2`, the cytotoxicity at 70.5 h was -11.2%.

On to `COc1ccc(Cl)cc1-n1c(COC(C)C)n[nH]c1=O`, for which the cytotoxicity at 70.5 h was -9.9%.

Regarding `CCc1nc(C)c(CC(=O)N2CCC3(CC2)OCCCC3OC)c(=O)[nH]1` (stereo not given), the cytotoxicity at 70.5 h is -6.31%.

As to `CC(C)N1CCCC(C(=O)NCCCc2cnn(C)c2)C1` (stereo not given), the cytotoxicity at 70.5 h was found to be 17.4%.

On to `CCc1cc(NC(C)(C)C)nc(N2CCOCC2)n1`, for which the cytotoxicity at 70.5 h was -12%.

Regarding `COc1ccc2c(c1)C(C(=O)NCCCN1CCN(C)CC1)CC(=O)N2` (stereo not given), the cytotoxicity at 70.5 h was -25%.

`Cc1ccnc(CC(C)N(C)Cc2ccc3c(c2)CCO3)c1` (stereo not given): the cytotoxicity at 70.5 h was -5.48%.

For the compound `COc1cc(N2CCC(c3nccn3CCCN(C)C)CC2)nc(N)n1`, the cytotoxicity at 70.5 h is -1.61%.

Turning to `O=C(NCC1=CCCCC1)C(c1cccnc1)N1CCOCC1` (stereo not given), the cytotoxicity at 70.5 h is -1.14%.

For the compound `OC1CCN(C2CCN(Cc3cnc(-c4cccs4)nc3)CC2)CC1`, the cytotoxicity at 70.5 h came out at 12.5%.

Consider `CCc1ncc(C(=O)NCCn2c(C)cc(C)nc2=O)cn1`, for which the cytotoxicity at 70.5 h is -1.56%.

With `CCc1cccc(OC2CN(C(=O)[C@@H](N)[C@@H](C)O)C2)c1`, the cytotoxicity at 70.5 h was -8.46%.

On to `Cc1ccnc(N2CCN(Cc3ccccc3)CC(O)C2)c1` (stereo not given), for which the cytotoxicity at 70.5 h was -3.12%.

Turning to `Cc1ccc(C(=O)N2[C@@H]3CC[C@H]2CN(C)C(=O)C3)c(=O)[nH]1`, the cytotoxicity at 70.5 h was -8.22%.

Consider `CCN1CCc2[nH]cnc2C12CCN(Cc1ccc3nsnc3c1)CC2`, for which the cytotoxicity at 70.5 h was -5.41%.

With `Cc1cc2ccccc2n1CCC(=O)N1CCCC1Cn1cccn1` (stereo not given), the cytotoxicity at 70.5 h was -9.07%.

For the compound `CCCc1nc(C)cc(N2Cc3cnn(CCO)c3C2)n1`, the cytotoxicity at 70.5 h was found to be 0.818%.

Consider `COCCC1(C(=O)O)CCCN(Cc2ccccc2OCCO)C1` (stereo not given), for which the cytotoxicity at 70.5 h was -8.44%.

For `O=C(CCc1cn[nH]c1)N1C[C@H](CO)C[C@H](CN2CCOCC2)C1`, the cytotoxicity at 70.5 h is -8.81%.

For the compound `CCCc1nnc(N2CCN(c3ccccc3Cl)CC2)o1`, the cytotoxicity at 70.5 h is -0.178%.

Consider `Cc1ccc(C2(O)CCN(C(=O)Cn3cc(C)c(=O)[nH]c3=O)CC2)nc1`, for which the cytotoxicity at 70.5 h is -7.28%.

For the compound `CN(Cc1ccccc1)c1ncccc1CNC1CN2CCC1CC2` (stereo not given), the cytotoxicity at 70.5 h is -6.82%.

Take `O=C(C1CCS(=O)(=O)CC1)N1C[C@H]2CC[C@@H]1CN(Cc1ccccc1)C2`: the cytotoxicity at 70.5 h stood at 10.4%.

Take `CSCC(=O)N1CCC(c2nccn2Cc2cscn2)CC1`: the cytotoxicity at 70.5 h is -2.59%.

In the case of `CC[C@@H](c1ccccc1)n1c(CN)n[nH]c1=O`, the cytotoxicity at 70.5 h is -13.5%.

In the case of `COCCc1noc(-c2ccc(N[C@H]3CCCCNC3=O)nc2)n1`, the cytotoxicity at 70.5 h was 1.36%.

Take `NC(=O)N1CCCC(C(=O)NCc2noc(Cc3ccccc3)n2)C1` (stereo not given): the cytotoxicity at 70.5 h is -12.7%.

Regarding `CCc1ncc(C(=O)N2CCN(Cc3ncccc3C)CC2)cn1`, the cytotoxicity at 70.5 h was -14.7%.

Take `C[C@@H]1CN(CC(C)(C)N2CCCCC2)CC[C@@]1(O)C1CC1`: the cytotoxicity at 70.5 h was -5.05%.

For `O=c1cc(N2CCNCC2)cnn1CCCn1cccn1`, the cytotoxicity at 70.5 h is -9.24%.

Regarding `CN1N=C(C(=O)N2CCCC(CCc3ccccc3F)C2)CCC1=O` (stereo not given), the cytotoxicity at 70.5 h is -5.83%.

Turning to `O=C(c1ccsc1)N1CCc2c(nc(-c3ccncc3)[nH]c2=O)C1`, the cytotoxicity at 70.5 h is -6.38%.

With `Cc1nc(N(C)C2CCCCC2)ncc1C(C)NC(=O)c1cccnc1` (stereo not given), the cytotoxicity at 70.5 h was -5.07%.

Consider `CC(CCc1ccc(O)cc1)NC1CCN(S(C)(=O)=O)CC1` (stereo not given), for which the cytotoxicity at 70.5 h was -4.22%.

Take `Cc1nc(N)ccc1CC1COc2ccccc2C1` (stereo not given): the cytotoxicity at 70.5 h was 15%.

`COCCC1(CO)CCCN(C(=O)c2cc(Cl)ccc2F)C1` (stereo not given): the cytotoxicity at 70.5 h is -11%.

As for `O=C1CC(c2ncc(-c3ccc4c(c3)OCCO4)[nH]2)CN1C1CCCC1` (stereo not given), the cytotoxicity at 70.5 h was -4.48%.
